Measured values from ChEMBL document CHEMBL1134047, “Binding of a cyclic BIV beta-Tat peptide with its TAR RNA construct” (Bioorg Med Chem Lett, 2001).

Each molecule was assayed on Nucleic Acid (assay: Binding affinity to the ([…]) BIV TAR RNA target was determined by fluorescence binding study).
Type: nucleic-acid assay, Bos taurus

In order of rising Kd:
1. CC[C@H](C)[C@@H]1NC(=O)[C@@H](CCCNC(=N)N)NC(=O)[C@H](CCCNC(=N)N)NC(=O)CNC(=O)[C@H](CCCCN)NC(=O)CNC(=O)[C@H](CCCNC(=N)N)NC(=O)[C@@H]([C@@H](C)O)NC(=O)CNC(=O)[C@@H](CCCNC(=N)N)NC(=O)[C@@H]2CCCN2C(=O)[C@@H](CCCNC(=N)N)NC(=O)[C@H]2CCCN2C(=O)CNC(=O)[C@@H](CO)NC(=O)[C@@H](N)CSSC[C@@H](C(=O)O)NC(=O)[C@H](CCCNC(=N)N)NC(=O)[C@@H](CCCNC(=N)N)NC1=O  0.273 nM
2. CC[C@H](C)[C@H](NC(=O)[C@H](CCCN=C(N)N)NC(=O)[C@H](CCCN=C(N)N)NC(=O)CNC(=O)[C@H](CCCCN)NC(=O)CNC(=O)[C@H](CCCN=C(N)N)NC(=O)[C@@H](NC(=O)CNC(=O)[C@H](CCCN=C(N)N)NC(=O)[C@H]1CCCN1C(=O)[C@H](CCCN=C(N)N)NC(=O)[C@H]1CCCN1C(=O)CNC(=O)[C@H](CO)NC(=O)[C@@H](N)CS)[C@@H](C)O)C(=O)N[C@@H](CCCN=C(N)N)C(N)=O  1.28 nM
3. CC[C@H](C)[C@H](NC(=O)[C@H](CCCNC(=N)N)NC(=O)[C@H](CCCNC(=N)N)NC(=O)CNC(=O)[C@H](CCCCN)NC(=O)CNC(=O)[C@H](CCCNC(=N)N)NC(=O)[C@@H](NC(=O)CNC(=O)[C@H](CCCNC(=N)N)NC(=O)[C@H]1CCCN1C(=O)[C@H](CCCNC(=N)N)NC(=O)[C@H]1CCCN1C(=O)CNC(=O)[C@@H](N)CO)[C@@H](C)O)C(=O)N[C@@H](CCCNC(=N)N)C(=O)N[C@@H](CCCNC(=N)N)C(=O)O  1.32 nM
